# Like-named read-outs stand apart in the source and are kept apart here.
# Experiments:
# [1] = Metabolic stability in dog liver microsomes; format: in vitro ADME; settings: Beagle
# Protocol: (§1) The metabolic stability of test compounds was examined in CD-1 mouse, Sprague Dawley rat, Beagle dog, cynomolgus monkey, and human liver microsomes. Test compound (final concentration 1 μM) was mixed with diluted liver microsomes from each of the 5 species and a small aliquot was taken at 0, 5, 10, 20, 30, and 60 minutes for LC/MS/MS analysis. Intrinsic clearance and half-life were calculated.
# [2] = Metabolic stability in rat liver microsomes; format: in vitro ADME; settings: Sprague Dawley
# Protocol: as §1
# NQO1 = NQO1 activity assay in Raw264.7 cell lysates; format: cell-based; settings: Mus musculus; Raw264.7 cells, 48 hours treatment
# Protocol: Raw264.7 cells were seeded in DMEM+10% FBS in 96-well plates at a density of 10,000 cells per well. 6 hours after plating, cells were treated with DMSO or test compounds (top dose 100 nM, 1:4 serial dilution, 8-point) for 48 hours. NQO1 activity was then detected in cell lysates using NQO1 activity assay kit (Abeam, Cat#ab184867). NQO1 activity was then plotted against compound concentration, and EC50 values were calculated using four-parameter algorithm in Graphpad Prism.
# CYP1A2 = target: T1, CYP1A2 (Homo sapiens, UniProt P05177); experiment: CYP450 enzyme inhibition in liver microsomes (cocktail probe incubation); format: in vitro ADME; settings: species not given, 0.05-50 μM tested
# T1 construct: studied in liver microsomes of CD-1 mouse, Sprague Dawley rat, Beagle dog, cynomolgus monkey, and human; from tissue; host or cells: liver microsomes
# T1 sequence (P05177 1-516): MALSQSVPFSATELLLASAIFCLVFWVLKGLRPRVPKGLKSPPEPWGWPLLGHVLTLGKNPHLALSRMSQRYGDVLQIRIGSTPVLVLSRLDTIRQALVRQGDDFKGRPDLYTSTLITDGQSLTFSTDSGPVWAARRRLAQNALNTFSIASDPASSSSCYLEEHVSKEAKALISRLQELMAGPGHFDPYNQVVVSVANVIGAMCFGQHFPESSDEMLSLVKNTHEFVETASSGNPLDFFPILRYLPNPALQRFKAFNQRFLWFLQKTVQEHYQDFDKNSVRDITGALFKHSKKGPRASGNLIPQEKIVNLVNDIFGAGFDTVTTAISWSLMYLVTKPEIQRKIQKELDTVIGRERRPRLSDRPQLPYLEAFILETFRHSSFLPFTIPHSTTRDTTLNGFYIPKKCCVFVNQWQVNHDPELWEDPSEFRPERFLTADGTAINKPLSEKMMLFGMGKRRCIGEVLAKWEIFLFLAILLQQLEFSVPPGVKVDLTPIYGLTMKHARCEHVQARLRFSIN
# Summary of the method: (§2)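 Liver microsomes (CD-1 mouse, SD rat, Beagle dog, cynomolgus monkey, human) incubated with a cocktail of CYP-specific probe substrates. Test compounds at seven concentrations (0.05, 0.15, 0.5, 1.5, 5, 15, 50 μM). Known inhibitors included as positive controls at a single concentration above their IC50.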
# CYP2D6 = target: T2, CYP2D6 (Homo sapiens, UniProt P10635); experiment: as above; format: in vitro ADME; settings: species not given, 0.05-50 μM tested
# T2 construct: studied in liver microsomes of CD-1 mouse, Sprague Dawley rat, Beagle dog, cynomolgus monkey, and human; from tissue; host or cells: liver microsomes
# T2 sequence (P10635 whole entry): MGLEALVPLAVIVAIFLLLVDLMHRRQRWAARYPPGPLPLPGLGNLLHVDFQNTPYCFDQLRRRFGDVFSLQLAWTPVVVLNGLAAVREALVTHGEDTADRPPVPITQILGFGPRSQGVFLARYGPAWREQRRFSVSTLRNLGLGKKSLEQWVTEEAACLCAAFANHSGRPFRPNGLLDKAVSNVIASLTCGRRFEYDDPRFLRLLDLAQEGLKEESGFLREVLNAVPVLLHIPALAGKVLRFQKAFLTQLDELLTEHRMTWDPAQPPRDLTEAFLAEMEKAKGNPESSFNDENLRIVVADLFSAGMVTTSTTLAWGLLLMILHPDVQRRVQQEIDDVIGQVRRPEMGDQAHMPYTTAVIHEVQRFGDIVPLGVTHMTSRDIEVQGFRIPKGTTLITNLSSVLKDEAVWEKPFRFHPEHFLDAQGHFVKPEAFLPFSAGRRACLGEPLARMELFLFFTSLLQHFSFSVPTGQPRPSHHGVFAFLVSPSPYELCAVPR
# Summary of the method: as §2
# CYP2C19 = target: T3, CYP2C19 (Homo sapiens, UniProt P33261); experiment: as above; format: in vitro ADME; settings: species not given, 0.05-50 μM tested
# T3 construct: studied in liver microsomes of CD-1 mouse, Sprague Dawley rat, Beagle dog, cynomolgus monkey, and human; from tissue; host or cells: liver microsomes
# T3 sequence (P33261 whole entry): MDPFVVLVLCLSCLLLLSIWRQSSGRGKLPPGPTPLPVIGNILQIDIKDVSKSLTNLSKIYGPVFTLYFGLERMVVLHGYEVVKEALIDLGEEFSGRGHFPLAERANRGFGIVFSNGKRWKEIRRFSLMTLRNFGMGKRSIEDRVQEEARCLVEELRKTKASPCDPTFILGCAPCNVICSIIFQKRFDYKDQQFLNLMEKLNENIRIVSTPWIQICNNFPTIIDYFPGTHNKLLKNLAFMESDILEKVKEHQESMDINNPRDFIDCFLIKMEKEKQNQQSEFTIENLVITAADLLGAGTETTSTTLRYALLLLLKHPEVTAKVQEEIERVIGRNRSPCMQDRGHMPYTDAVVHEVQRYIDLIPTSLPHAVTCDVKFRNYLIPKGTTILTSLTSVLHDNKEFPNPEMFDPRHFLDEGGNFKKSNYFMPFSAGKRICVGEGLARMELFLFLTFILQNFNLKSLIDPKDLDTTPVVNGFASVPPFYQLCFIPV
# Summary of the method: as §2
# CYP2C9 = target: T4, CYP2C9 (Homo sapiens, UniProt P11712); experiment: as above; format: in vitro ADME; settings: species not given, 0.05-50 μM tested
# T4 construct: studied in liver microsomes of CD-1 mouse, Sprague Dawley rat, Beagle dog, cynomolgus monkey, and human; from tissue; host or cells: liver microsomes
# T4 sequence (P11712 whole entry): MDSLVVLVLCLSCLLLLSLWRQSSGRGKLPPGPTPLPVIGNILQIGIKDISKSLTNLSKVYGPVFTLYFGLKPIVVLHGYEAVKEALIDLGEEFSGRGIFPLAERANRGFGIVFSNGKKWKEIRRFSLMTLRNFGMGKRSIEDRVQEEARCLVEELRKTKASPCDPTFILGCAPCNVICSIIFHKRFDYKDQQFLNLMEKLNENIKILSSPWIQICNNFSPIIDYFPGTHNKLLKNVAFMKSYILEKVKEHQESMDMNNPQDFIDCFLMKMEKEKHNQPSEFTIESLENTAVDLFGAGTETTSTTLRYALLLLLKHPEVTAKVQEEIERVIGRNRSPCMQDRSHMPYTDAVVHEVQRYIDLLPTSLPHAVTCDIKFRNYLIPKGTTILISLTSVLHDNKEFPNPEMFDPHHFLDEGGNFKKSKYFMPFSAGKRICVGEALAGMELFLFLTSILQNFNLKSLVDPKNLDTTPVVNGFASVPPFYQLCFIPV
# Summary of the method: as §2
# CYP3A4 = target: T5, CYP3A4 (Homo sapiens, UniProt P08684); experiment: as above; format: in vitro ADME; settings: species not given, 0.05-50 μM tested
# T5 construct: studied in liver microsomes of CD-1 mouse, Sprague Dawley rat, Beagle dog, cynomolgus monkey, and human; from tissue; host or cells: liver microsomes
# T5 sequence (P08684 whole entry): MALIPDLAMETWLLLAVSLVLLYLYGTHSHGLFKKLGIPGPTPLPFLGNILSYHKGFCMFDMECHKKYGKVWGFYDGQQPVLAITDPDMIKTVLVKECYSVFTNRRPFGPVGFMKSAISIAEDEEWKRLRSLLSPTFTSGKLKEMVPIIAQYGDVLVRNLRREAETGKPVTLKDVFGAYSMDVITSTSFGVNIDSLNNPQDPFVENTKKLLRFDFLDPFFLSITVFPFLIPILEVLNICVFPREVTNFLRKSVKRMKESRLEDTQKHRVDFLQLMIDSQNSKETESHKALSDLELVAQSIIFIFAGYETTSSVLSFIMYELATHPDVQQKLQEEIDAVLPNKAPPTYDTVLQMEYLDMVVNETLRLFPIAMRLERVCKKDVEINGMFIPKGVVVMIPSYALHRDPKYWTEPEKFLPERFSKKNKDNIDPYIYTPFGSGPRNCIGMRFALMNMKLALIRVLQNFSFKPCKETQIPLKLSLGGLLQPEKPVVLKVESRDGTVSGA
# Summary of the method: as §2
# [3] = Metabolic stability in human liver microsomes; format: in vitro ADME
# Protocol: as §1
# [4] = Pharmacokinetic studies in Sprague Dawley rats (oral gavage and IV); format: in vivo; settings: rat, male SD rats, plasma; for AUC(0-t): read-out: AUC0-24 h; for bioavailability: oral 5 mg/kg vs IV 1 mg/kg, read-out: Bioavailibility F %
# Protocol: The pharmacokinetics of test compounds was evaluated in male SD rats when administered via oral gavage and IV injection. For oral dosing, compound was formulated in 0.5% methylcellulose and administered at doses of 5 mg/kg (3 rats per dose level) and volume of 10 mL/kg. For IV dosing, compound was formulated in 5% DMSO/5% Solutol/90% saline and administered to 3 rats at a dose of 1 mg/kg and a volume of 5 mL/kg. The rats were fasted overnight before administration. Plasma samples were collected predose and at 0.5, 1, 3, 6, 9, 12, and 24 hours postdose. The samples were analyzed by LC/MS/MS and the concentration of test compound at each timepoint was determined by linear regression. Pharmacokinetic parameters were calculated from the plasma concentrations using Pheonix WinNonlin.
# [5] = Metabolic stability in monkey liver microsomes; format: in vitro ADME, cynomolgus monkey
# Protocol: as §1
# [6] = Metabolic stability in mouse liver microsomes; format: in vitro ADME, CD-1 mouse; settings: CD-1
# Protocol: as §1
# [7] = test system: IFNγ-induced NO production in Raw 264.7 cells; experiment: Nitric oxide assay: suppression of IFNγ-induced NO production (Griess nitrite, adjusted to live cell numbers); format: cell-based; settings: Mus musculus, RAW264.7, 2 h pretreatment, IFNγ 10 ng/ml for 24 hours
# Summary of the method: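 Raw 264.7 cells in DMEM + 2% FBS were pretreated 2 h with compound (10-point, 1:4 dilution from 100 nM), then stimulated with 10 ng/ml mouse IFNγ for 24 h. Media nitrite was read by Griess and normalised to CellTiter-Glo viability. IC50 from four-parameter fit of % inhibition.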
Structure (SMILES),CLint scaled at 1 μM [1] [mL/min/kg],half-life at 1 μM [1] [min],CLint scaled at 1 μM [2] [mL/min/kg],half-life at 1 μM [2] [min],EC50 (NQO1) [µM],IC50 (CYP1A2) [µM],IC50 (CYP2D6) [µM],IC50 (CYP2C19) [µM],IC50 (CYP2C9) [µM],IC50 (CYP3A4) [µM],CLint scaled at 1 μM [3] [mL/min/kg],half-life at 1 μM [3] [min],C0 ([4]; IV (1 mg/kg)) [ng/mL],clearance ([4]; IV (1 mg/kg)) [mL/min/kg],half-life ([4]; IV (1 mg/kg)) [min],AUC(0-t) ([4]; IV (1 mg/kg)) [ng·h/mL],Cmax ([4]; Oral (5 mg/kg)) [ng/mL],half-life ([4]; Oral (5 mg/kg)) [min],AUC(0-t) ([4]; Oral (5 mg/kg)) [ng·h/mL],bioavailability [4] [%],further results
"Cc1nnc([C@@]2(C)CC[C@]3(C)CC[C@]4(C)[C@H](C(=O)C=C5[C@@]6(C)C=C(C#N)C(=O)C(C)(C)[C@@H]6CC[C@]54C)[C@@H]3C2)o1 [Example 1, (4aR,6aS,6bR,8aS,11S,12aS,12bR,14bS)-4,4,6a,6b,8a,11,14b-heptamethyl-11-(5-methyl-1,3,4-oxadiazol-2-yl)-3,13-dioxo-3,4,4a,5,6,6a,6b,7,8,8a,9,10,11,12,12a,12b,13,14b-octadecahydropicene-2-carbonitrile]",37,54,42,59.4,< 0.01,> 50,15,11.8,2.7,1,168,7.4,349,63.8,102,258,170,132,1100,83.8,CLint scaled at 1 μM [5]: 269 mL/min/kg; half-life at 1 μM [5]: 7 min; CLint scaled at 1 μM [6]: 423 mL/min/kg; half-life at 1 μM [6]: 13 min; IC50 [7]: < 0.01 µM
"CC1(C)C(=O)C(C#N)=C[C@]2(C)C3=CC(=O)[C@@H]4[C@@H]5C[C@@](C)(N6CC(O)C6)CC[C@]5(C)CC[C@@]4(C)[C@]3(C)CC[C@@H]12 [Example 26, (4aR,6aS,6bR,8aS,11S,12aS,14bS)-11-(3-hydroxyazetidin-1-yl)-4,4,6a,6b,8a,11,14b-heptamethyl-3,13-dioxo-3,4,4a,5,6,6a,6b,7,8,8a,9,10,11,12,12a,12b,13,14b-octadecahydropicene-2-carbonitrile]",77.3,25.8,161,15.5,< 0.01,> 50,> 50,> 50,27.6,14.6,184,6.8,1040,56.3,282,294,57,216,270,18.3,CLint scaled at 1 μM [5]: 752 mL/min/kg; half-life at 1 μM [5]: 2.5 min; CLint scaled at 1 μM [6]: 402 mL/min/kg; half-life at 1 μM [6]: 13.7 min; IC50 [7]: < 0.01 µM
"CC1(C)C(=O)C(C#N)=C[C@]2(C)C3=CC(=O)[C@@H]4[C@@H]5C[C@@](C)(c6nnc(C(N)=O)o6)CC[C@]5(C)CC[C@@]4(C)[C@]3(C)CC[C@@H]12 [Example 25, 5-((2S,4aS,6aR,6bS,8aR,12aS,14aR,14bS)-11-cyano-2,4a,6a,6b,9,9,12a-heptamethyl-10,14-dioxo-1,2,3,4,4a,5,6,6a,6b,7,8,8a,9,10,12a,14,14a,14b-octadecahydropicen-2-yl)-1,3,4-oxadiazole-2-carboxamide]",58.4,34.2,87.2,28.6,0.01 to 0.1,> 50,> 50,> 50,6.9,6.6,96.2,13,1300,63.3,84,263,32,78,102,7.8,CLint scaled at 1 μM [5]: 294 mL/min/kg; half-life at 1 μM [5]: 6.4 min; CLint scaled at 1 μM [6]: 289 mL/min/kg; half-life at 1 μM [6]: 19 min; IC50 [7]: < 0.01 µM
"COC(=O)[C@]12CCC(C)(C)C[C@H]1[C@H]1C(=O)C=C3[C@@]4(C)C=C(C#N)C(=O)C(C)(C)[C@@H]4CC[C@@]3(C)[C@]1(C)CC2 [Control, reference compound]",78,25.6,832,3,< 0.01,> 50,> 50,5.2,1.7,2.6,95.4,13.1,365,56.8,378,291,7,204,26,1.8,CLint scaled at 1 μM [5]: 949 mL/min/kg; half-life at 1 μM [5]: 2 min; CLint scaled at 1 μM [6]: 180 mL/min/kg; half-life at 1 μM [6]: 30.6 min; IC50 [7]: < 0.01 µM

# — patent US20220017566A1, “TERPINOID DERIVATIVES AND USES THEREOF” (SICHUAN HAISCO PHARMACEUTICAL CO., LTD., priority 2018, published 2022)
